# Assays:
# [1] = pH measurement of UP4U crystals (crystal pH); assay type: physicochemical; details: 1.0 g dissolved in 20 mL distilled water
# Method: The term crystal pH in the present invention refers to the value of pH of crystals measured with 1 g of crystals dissolved in 20 mL of water. The control of the pH of UP4U crystals within a desired range of values is possible, for example, by controlling the pH of an original solution for use in crystallization. To control the pH, it is sufficient to use, as necessary, an arbitrary acid or alkali capable of being used for production of raw materials or the like for pharmaceutical products. An arbitrary one selected from hydrochloric acid, nitric acid, phosphoric acid, and so on can be used as the acid and an arbitrary one selected from sodium hydroxide, sodium carbonate, sodium hydrogen carbonate, and so on can be used as the alkali.
# Control of UP4U Crystals with Different pHs UP4U crystals prepared by a known method were dissolved in deionized water. Various phosphoric acid aqueous solutions or sodium hydroxide aqueous solutions were each added to the solution containing UP4U dissolved therein to prepare solutions having different pHs (hereinafter, referred to as “original solutions”).
# Ethanol was put into each of the original solutions to make the original solution lightly cloudy, followed by addition of a small amount of UP4U crystals and stirring for a dozen hours. After confirmation of crystal precipitation, ethanol was further put into each of the solutions, the solution was stirred, and crystals were then separated from the solution using a centrifuge. The obtained various crystals were dried with a circulation dryer to prepare various UP4U crystals having different pHs.
# (pH Measurement) Water was sufficiently boiled and then cooled in a state where a carbon dioxide absorption tube was connected, thus preparing distilled water. An amount of 1.0 g of each test sample was dissolved in 20 mL of the prepared distilled water. The pH (crystal pH) of this solution was measured.
# [2] = Stability test of packed UP4U crystals, four weeks of storage, HPLC purity; assay type: physicochemical; details: for decrease in HPLC purity: regardless of the crystal pH
# Method: (Packing of Test Sample) An amount of approximately 20 mg of each test sample was put into a pouch made of low-density polyethylene and sealed by heat sealing. This pouch was further put into a pouch made of low-density polyethylene and sealed by heat sealing. This pouch was still further put into a pouch made of low-density polyethylene and sealed by heat sealing. This pouch was put into a pouch made of aluminum-metallized film and sealed by heat sealing, thus preparing a sample for stability test. (Stability Test) Packed samples were put into thermostatic baths at 5° C., 25° C., 40° C., and 60° C., respectively, and stored for four weeks. (Analysis) For each sample zero days after the start of the stability test and samples of the same type at four weeks of storage at the different temperatures, the packing by sealing was opened and each of the test samples was dissolved in deionized water. This solution was analyzed by HPLC and, based on the analysis result, evaluated in terms of stability. The conditions of the measurement using HPLC in this analysis were as follows. [table] The evaluation was made by defining the value obtained by subtracting the HPLC purity (%) of crystals zero days after the start of the stability test from the HPLC purity (%) of the crystals at four weeks of storage as a rate of change (%).
smiles,measurement,setting,value
"O=c1ccn([C@@H]2O[C@H](COP(=O)(O)OP(=O)(O)OP(=O)(O)OP(=O)(O)OC[C@H]3O[C@@H](n4ccc(=O)[nH]c4=O)[C@H](O)[C@@H]3O)[C@@H](O)[C@H]2O)c(=O)[nH]1 [UP4U crystals, P^1,P^4-bis(5′-uridyl)tetraphosphate]",Crystal pH,[1]; original liquid pH 2.50,4.60
same,Crystal pH,[1]; original liquid pH 3.00,5.16
same,Crystal pH,[1]; original liquid pH 3.50,5.54
same,Crystal pH,[1]; original liquid pH 4.00,5.64
same,Crystal pH,[1]; original liquid pH 5.50,5.97
same,Crystal pH,[1]; original liquid pH 6.50,6.32
same,Crystal pH,[1]; original liquid pH 7.40,6.66
same,Crystal pH,[1]; original liquid pH 7.80,6.91
same,Crystal pH,[1]; original liquid pH 8.00,7.12
same,Crystal pH,[1]; original liquid pH 8.10,7.43
same,Crystal pH,[1]; original liquid pH 8.20,7.97
same,rate of change in HPLC purity,"[2]; 5° C., four weeks of storage, crystal pH 4.60",0.01%
same,rate of change in HPLC purity,"[2]; 5° C., four weeks of storage, crystal pH 5.16",0.00%
same,rate of change in HPLC purity,"[2]; 5° C., four weeks of storage, crystal pH 5.54",0.00%
same,rate of change in HPLC purity,"[2]; 5° C., four weeks of storage, crystal pH 5.64",0.00%
same,rate of change in HPLC purity,"[2]; 5° C., four weeks of storage, crystal pH 5.97",0.00%
same,rate of change in HPLC purity,"[2]; 5° C., four weeks of storage, crystal pH 6.32",0.00%
same,rate of change in HPLC purity,"[2]; 5° C., four weeks of storage, crystal pH 6.66",−0.01%
same,rate of change in HPLC purity,"[2]; 5° C., four weeks of storage, crystal pH 6.91",0.00%
same,rate of change in HPLC purity,"[2]; 5° C., four weeks of storage, crystal pH 7.12",0.00%
same,rate of change in HPLC purity,"[2]; 5° C., four weeks of storage, crystal pH 7.43",0.01%
same,rate of change in HPLC purity,"[2]; 5° C., four weeks of storage, crystal pH 7.97",0.03%
same,rate of change in HPLC purity,"[2]; 25° C., four weeks of storage, crystal pH 4.60",−0.01%
same,rate of change in HPLC purity,"[2]; 25° C., four weeks of storage, crystal pH 5.16",−0.02%
same,rate of change in HPLC purity,"[2]; 25° C., four weeks of storage, crystal pH 5.54",−0.02%
same,rate of change in HPLC purity,"[2]; 25° C., four weeks of storage, crystal pH 5.64",−0.01%
same,rate of change in HPLC purity,"[2]; 25° C., four weeks of storage, crystal pH 5.97",−0.02%
same,rate of change in HPLC purity,"[2]; 25° C., four weeks of storage, crystal pH 6.32",−0.01%
same,rate of change in HPLC purity,"[2]; 25° C., four weeks of storage, crystal pH 6.66",−0.03%
same,rate of change in HPLC purity,"[2]; 25° C., four weeks of storage, crystal pH 6.91",−0.02%
same,rate of change in HPLC purity,"[2]; 25° C., four weeks of storage, crystal pH 7.12",−0.02%
same,rate of change in HPLC purity,"[2]; 25° C., four weeks of storage, crystal pH 7.43",−0.01%
same,rate of change in HPLC purity,"[2]; 25° C., four weeks of storage, crystal pH 7.97",−0.01%
same,rate of change in HPLC purity,"[2]; 40° C., four weeks of storage, crystal pH 4.60",−0.05%
same,rate of change in HPLC purity,"[2]; 40° C., four weeks of storage, crystal pH 5.16",−0.04%
same,rate of change in HPLC purity,"[2]; 40° C., four weeks of storage, crystal pH 5.54",−0.03%
same,rate of change in HPLC purity,"[2]; 40° C., four weeks of storage, crystal pH 5.64",−0.02%
same,rate of change in HPLC purity,"[2]; 40° C., four weeks of storage, crystal pH 5.97",−0.03%
same,rate of change in HPLC purity,"[2]; 40° C., four weeks of storage, crystal pH 6.32",−0.02%
same,rate of change in HPLC purity,"[2]; 40° C., four weeks of storage, crystal pH 6.66",−0.04%
same,rate of change in HPLC purity,"[2]; 40° C., four weeks of storage, crystal pH 6.91",−0.04%
same,rate of change in HPLC purity,"[2]; 40° C., four weeks of storage, crystal pH 7.12",−0.08%
same,rate of change in HPLC purity,"[2]; 40° C., four weeks of storage, crystal pH 7.43",−0.15%
same,rate of change in HPLC purity,"[2]; 40° C., four weeks of storage, crystal pH 7.97",−0.12%
same,rate of change in HPLC purity,"[2]; 60° C., four weeks of storage, crystal pH 4.60",−0.25%
same,rate of change in HPLC purity,"[2]; 60° C., four weeks of storage, crystal pH 5.16",−0.08%
same,rate of change in HPLC purity,"[2]; 60° C., four weeks of storage, crystal pH 5.54",−0.07%
same,rate of change in HPLC purity,"[2]; 60° C., four weeks of storage, crystal pH 5.64",−0.07%
same,rate of change in HPLC purity,"[2]; 60° C., four weeks of storage, crystal pH 5.97",−0.08%
same,rate of change in HPLC purity,"[2]; 60° C., four weeks of storage, crystal pH 6.32",−0.14%
same,rate of change in HPLC purity,"[2]; 60° C., four weeks of storage, crystal pH 6.66",−0.18%
same,rate of change in HPLC purity,"[2]; 60° C., four weeks of storage, crystal pH 6.91",−0.24%
same,rate of change in HPLC purity,"[2]; 60° C., four weeks of storage, crystal pH 7.12",−0.46%
same,rate of change in HPLC purity,"[2]; 60° C., four weeks of storage, crystal pH 7.43",−0.50%
same,rate of change in HPLC purity,"[2]; 60° C., four weeks of storage, crystal pH 7.97",−0.87%
same,rate of change in HPLC purity,"[2]; four weeks, one of: (1) 0° C. or more and less than 25° C., (2) 25° C. or more and less than 40° C. and crystal pH 4.5 to 8.0, (3) 40° C. or more and less than 60° C. and crystal pH 5.0 to 6.4",≤ 0.15%
same,rate of change in HPLC purity,"[2]; four weeks, one of: (4) 0° C. or more and less than 25° C., (5) 25° C. or more and less than 40° C. and crystal pH 4.5 to 7.4, (6) 40° C. or more and less than 60° C. and crystal pH 5.2 to 6.2",≤ 0.10%
same,rate of change in HPLC purity,"[2]; four weeks, one of: (7) 0° C. or more and less than 25° C., (8) 25° C. or more and less than 40° C. and crystal pH 4.6 to 6.6",≤ 0.05%
same,decrease in HPLC purity,[2]; storage temperature 0° C. or more and less than 25° C.,substantially no decrease
same,decrease in HPLC purity,[2]; storage temperature of 60° C. or more,may significantly decrease

# From US10493091B2, “Method for storing P1, P4-bis(5′-uridyl)teraphosphate crystals” (Yamasa Corporation, priority 2015, dated 2019)
